Experimental data as given in US7662819B2, “Pteridinone derivatives for use as stearoyl CoA desaturase inhibitors” (Gilead Palo Alto, Inc., priority 2007, dated 2010).

Biological target: T1, stearoyl-CoA desaturase (SCD) (Rattus norvegicus, UniProt P07308)
T1 construct: from tissue; host or cells: liver microsomes of male Sprague Dawley rats, with SCD induced by a carbohydrate-rich diet after fasting/feeding cycles
T1 sequence (P07308 1-358): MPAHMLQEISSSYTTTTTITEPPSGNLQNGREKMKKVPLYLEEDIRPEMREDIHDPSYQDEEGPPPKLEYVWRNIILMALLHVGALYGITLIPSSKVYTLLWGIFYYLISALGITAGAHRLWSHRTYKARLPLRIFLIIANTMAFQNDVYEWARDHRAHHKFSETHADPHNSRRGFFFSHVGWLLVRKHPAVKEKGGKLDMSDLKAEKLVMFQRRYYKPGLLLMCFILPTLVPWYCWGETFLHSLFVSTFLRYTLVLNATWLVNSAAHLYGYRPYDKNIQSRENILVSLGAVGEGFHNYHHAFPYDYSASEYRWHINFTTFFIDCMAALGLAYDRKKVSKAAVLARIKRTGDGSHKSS
Test: SCD assay in rat liver microsomes ([3H]stearoyl CoA desaturation, adapted from Talamo and Bloch)
Assay type: biochemical
Conditions: rat liver microsomes 0.2 mg/ml assay final, 30 min preincubation, 45 min reaction, room temperature
Source text: The identification of compounds of the invention as SCD inhibitors was readily accomplished using the SCD enzyme and microsomal assay procedure described in Talamo and Bloch (1969) Analytical Biochemistry 29:300-304.
The rat liver microsomes were collected according to the procedure described in Ozols (1990) Methods Enzm, 182:225.
Male Spraque Dawley Rats were placed on regimented fasting protocol for one week to stimulate SCD enzymatic activity. 48-hour periods were alternated between feeding and fasting to induce and down-regulate SCD activity with SCD activity being induced via carbohydrate rich diet prior to liver perfusion and collection.
The rats were anesthetized with Isoflurane inhalation anesthetic, the liver perfused with cold phosphate buffered saline (PBS), weighed, and chilled in cold homogenization buffer (250 mM sucrose, 10 mM Tris, 1 mM EDTA, pH 7.6.
The livers were finely minced and placed in homogenization tube. 40 mL of homogenization buffer was added to the homogenization tube and the liver homogenized and centrifuged in a pre-chilled […] for 10 min at 4° C.
Following centrifugation, the supernatant was collected and the pellet removed and discarded. The supernatant was centrifuge at 10,000 G for 35 minutes. Following centrifugation, the supernatant was collect and the pellet discarded. The supernatant was then centrifuged in a pre-chilled 45-Ti rotor at 130,000 G (41,000 RPM) for 90 minutes at 4° C.
The supernatant was then aspirated off and the collected microsomal pellet washed in 25 mL of Glycerol PBS (1×PBS 7.4, 20% Glycerol) and resuspended in 4-5 volumes of Glycerol PBS.
The protein concentration of the microsomal preparation was determined by BCA assay (Pierce) and the microsomes were aliquoted and stored at −80° C.
Biobeads were ground to a smaller size in a mortar and pestle and resuspended in 3.6% TCA. The beads were then filtered through […] mesh.
SCD was determined in the desaturase assay buffer. This assay buffer contained 0.1 M Tris buffer, pH 7.2, 2 mM NADH, 4.8 mM ATP, 0.5 mM CoA, 4.8 mM MgCl2, and 0.1% BSA.
The Procedure for the SCD Assay (Adapted from Talamo and Bloch (1969) Analytical Biochemistry 29:300-304)
1 μl of each compound of Formula I was added to an assay plate by a low volume (0.5-10 μL) multichannel pipette. A DMSO control was also prepared. The microsomes were quickly thawed and added to assay buffer so that a concentration of 0.4 mg/ml was achieved (0.2 mg/ml assay final). 50 μl of the microsome suspension in assay buffer was then added into each well in the compound assay plate, the plate was covered, and the microsomes preincubated with the compounds for 30 minutes on the orbital shaker, 50-75 rpm, at room temperature.
After preincubation, the reaction was initiated by the addition of 50 μl of substrate solution (20 μM Stearoyl CoA, [3H]Stearoyl CoA, 74 nCi) to the preincubated microsomes/compound suspensions in MilliQ (Millipore) H2O. The reaction mixtures were then incubated for 45 minutes on the orbital shaker at 50-75 rpm at room temperature.
The reaction was terminated by the addition of 10 μl of 21% […] (TCA) to the reaction mixture followed incubation on the orbital shaker for 30 minutes at 50-75 rpm at room temperature followed by centrifugation for 5 minutes at 3700 rpm.
50 μl of a 6% Bio-Bead suspension in H2O was added to the reaction mixture and the assay plate was sealed. The Bio-Bead mixture was incubated on the orbital shaker for 1 hour, 100-150 rpm at room temperature, and then the mixture was centrifuged at 2000 g for 5 minutes to pellet the Bio-Beads.
25 μl of the supernatant was harvested from each well and transferred to a detection plate. 100 μl of OptiPhase SuperMix scinitillation cocktail (containing sufficient NaOH to neutralize the TCA) was added and the solutions mixed by vigorous shaking (300-400 rpm) for 5 minutes at room temperature. […]

| Structure (SMILES) | IC50 |
| --- | --- |
| O=C(NCCn1c(=O)c(-c2cccnc2)nc2cnc(NCc3ccc(Cl)c(Cl)c3)nc21)c1ccccc1 [Compound 36, N-[2-(2-{[(3,4-dichlorophenyl)methyl]amino}-7-oxo-6-(3-pyridyl)(8-hydropteridin-8-yl))ethyl]benzamide] | 4.06 µM |
| O=C(NCCn1c(=O)cnc2cnc(NCc3ccc(Cl)c(Cl)c3)nc21)c1ccccc1 [Compound 34, N-[2-(2-{[(3,4-dichlorophenyl)methyl]amino}-7-oxo(8-hydropteridin-8-yl))ethyl]benzamide] | 2.72 µM |
| COc1ccc(-c2nc3cnc(NCc4ccc(Cl)c(Cl)c4)nc3n(CCNC(C)=O)c2=O)cc1F [Compound 22, N-[2-(2-{[(3,4-dichlorophenyl)methyl]amino}-6-(3-fluoro-4-methoxyphenyl)-7-oxo-8-hydropteridin-8-yl)ethyl]acetamide] | 2.21 µM |
| COc1ccc(-c2nc3cnc(NCc4ccc(Cl)c(Cl)c4)nc3n(CCNC(=O)c3ccco3)c2=O)cc1 [Compound 31, N-[2-(2-{[(3,4-dichlorophenyl)methyl]amino}-6-(4-methoxyphenyl)-7-oxo(8-hydropteridin-8-yl))ethyl]-2-furylcarboxamide] | 2.26 µM |
| CC(=O)NCCn1c(=O)c(-c2cccnc2)nc2cnc(NCc3ccc(Cl)c(Cl)c3)nc21 [Compound 12, N-[2-(2-{[(3,4-dichlorophenyl)methyl]amino}-7-oxo-6-(3-pyridyl)-8-hydropteridin-8-yl)ethyl]acetamide] | 0.23 µM |
| CC(=O)NCCn1c(=O)c(C(F)(F)F)nc2cnc(NCc3ccc(Cl)c(Cl)c3)nc21 [Compound 13, N-[2-(2-{[(3,4-dichlorophenyl)methyl]amino}-7-oxo-6-(trifluoromethyl)-8-hydropteridin-8-yl)ethyl]acetamide] | 2.1 µM |
| C/C=C/C(=O)NCCn1c(=O)c(-c2ccc(OC)cc2)nc2cnc(NCc3ccc(Cl)c(Cl)c3)nc21 [Compound 40, (2E)—N-[2-(2-{[(3,4-dichlorophenyl)methyl]amino}-6-(4-methoxyphenyl)-7-oxo(8-hydropteridin-8-yl))ethyl]but-2-enamide] | 0.47 µM |
| CC(=O)NCCn1c(=O)cnc2cnc(NCc3cccc(Cl)c3)nc21 [Compound 25, N-[2-(2-{[(3-chlorophenyl)methyl]amino}-7-oxo-8-hydropteridin-8-yl)ethyl]acetamide] | 10 µM |
| CC(=O)NCCn1c(=O)c(-c2cccs2)nc2cnc(NCc3ccc(F)c(F)c3)nc21 [Compound 19, N-[2-(2-{[(3,4-difluorophenyl)methyl]amino}-7-oxo-6-(2-thienyl)-8-hydropteridin-8-yl)ethyl]acetamide] | 3.4 µM |
| CC(=O)NCCn1c(=O)c(-c2cccnc2)nc2cnc(NCc3ccc(F)cc3)nc21 [Compound 11, N-[2-(2-{[(4-fluorophenyl)methyl]amino}-7-oxo-6-(3-pyridyl)-8-hydropteridin-8-yl)ethyl]acetamide] | 5.7 µM |
| CC(=O)NCCn1c(=O)cnc2cnc(NCc3ccc(Cl)cc3)nc21 [Compound 28, N-[2-(2-{[(4-chlorophenyl)methyl]amino}-7-oxo-8-hydropteridin-8-yl)ethyl]acetamide] | 21.9 µM |
| COc1ccc(-c2nc3cnc(NCc4ccc(Cl)c(Cl)c4)nc3n(CCNC(=O)c3ccncc3)c2=O)cc1 [Compound 39, N-[2-(2-{[(3,4-dichlorophenyl)methyl]amino}-6-(4-methoxyphenyl)-7-oxo(8-hydropteridin-8-yl))ethyl]-4-pyridylcarboxamide] | 2.8 µM |
| O=C(NCCn1c(=O)c(-c2cccnc2)nc2cnc(NCc3ccc(Cl)c(Cl)c3)nc21)c1ccc(F)cc1 [Compound 38, N-[2-(2-{[(3,4-dichlorophenyl)methyl]amino}-7-oxo-6-(3-pyridyl)(8-hydropteridin-8-yl))ethyl](4-fluorophenyl)carboxamide] | 1.18 µM |
| COc1ccc(-c2nc3cnc(NCc4ccc(Cl)c(Cl)c4)nc3n(CCNC(=O)c3ccsc3)c2=O)cc1 [Compound 23, N-[2-(2-{[(3,4-dichlorophenyl)methyl]amino}-6-(4-methoxyphenyl)-7-oxo(8-hydropteridin-8-yl))ethyl]-3-thienylcarboxamide] | 0.47 µM |
| COc1ccc(-c2nc3cnc(NCc4ccc(Cl)c(Cl)c4)nc3n(CCNC(=O)c3cccnc3)c2=O)cc1 [Compound 4, N-[2-(2-{[(3,4-dichlorophenyl)methyl]amino}-6-(4-methoxyphenyl)-7-oxo(8-hydropteridin-8-yl))ethyl]-3-pyridylcarboxamide] | 1.6 µM |

More lines, now with the values ahead:

| IC50 | Structure (SMILES) |
| --- | --- |
| 2.6 µM | CC(=O)NCCn1c(=O)c(-c2cccnc2)nc2cnc(NCc3ccccc3)nc21 [Compound 9, N-(2-{7-oxo-2-[benzylamino]-6-(3-pyridyl)-8-hydropteridin-8-yl}ethyl)acetamide] |
| 5 µM | COc1ccc(-c2nc3cnc(NCc4ccc(Cl)c(Cl)c4)nc3n([C@@H]3CCNC3)c2=O)cc1 [Compound 3, 8-((3R)pyrrolidin-3-yl)-2-{[(3,4-dichlorophenyl)methyl]amino}-6-(4-methoxyphenyl)-8-hydropteridin-7-one] |
| 13 µM | COc1ccc(-c2nc3cnc(NCc4ccc(F)c(F)c4)nc3n(CCNC(C)=O)c2=O)cc1 [Compound 18, N-[2-(2-{[(3,4-difluorophenyl)methyl]amino}-6-(4-methoxyphenyl)-7-oxo-8-hydropteridin-8-yl)ethyl]acetamide] |
| 6.12 µM | O=C(NCCn1c(=O)cnc2cnc(NCc3ccc(Cl)c(Cl)c3)nc21)c1ccsc1 [Compound 35, N-[2-(2-{[(3,4-dichlorophenyl)methyl]amino}-7-oxo(8-hydropteridin-8-yl))ethyl]-3-thienylcarboxamide] |
| 22 µM | CC(=O)NCCn1c(=O)c(C(F)(F)F)nc2cnc(NCc3ccc(F)cc3)nc21 [Compound 20, N-[2-(2-{[(4-fluorophenyl)methyl]amino}-7-oxo-6-(trifluoromethyl)-8-hydropteridin-8-yl)ethyl]acetamide] |
| 1.8 µM | CC(=O)NCCn1c(=O)c(-c2ccc(Cl)cc2)nc2cnc(NCc3ccc(F)cc3)nc21 [Compound 33, N-[2-(6-(4-chlorophenyl)-2-{[(4-fluorophenyl)methyl]amino}-7-oxo-8-hydropteridin-8-yl)ethyl]acetamide] |
| 0.26 µM | COc1ccc(-c2nc3cnc(NCc4ccc(Cl)c(Cl)c4)nc3n(CCNC=O)c2=O)cc1 [Compound 41, N-[2-(2-{[(3,4-dichlorophenyl)methyl]amino}-6-(4-methoxyphenyl)-7-oxo-8-hydropteridin-8-yl)ethyl]carboxamide] |
| 0.56 µM | COc1ccc(-c2nc3cnc(NCc4ccc(Cl)c(Cl)c4)nc3n(CCNC(=O)c3ccccc3)c2=O)cc1 [Compound 7, N-[2-(2-{[(3,4-dichlorophenyl)methyl]amino}-6-(4-methoxyphenyl)-7-oxo(8-hydropteridin-8-yl))ethyl]benzamide] |
| 7.8 µM | CC(=O)NCCn1c(=O)c(-c2ccc(Cl)cc2)nc2cnc(NCc3cccc(Cl)c3)nc21 [Compound 26, N-[2-(6-(4-chlorophenyl)-2-{[(3-chlorophenyl)methyl]amino}-7-oxo-8-hydropteridin-8-yl)ethyl]acetamide] |
